Measurements taken from patent US20120122908A1, “Novel C-4 Substituted Retinoids” (University of Maryland, priority 2000, published 2012).

Columns and labels:
CYP17 (17-lyase) = target: T1, CYP17 (17-lyase) (Homo sapiens, UniProt P05093); assay: Selectivity: effect on CYP17 (17-lyase); assay type: biochemical; settings: concentration as high as 5 μM
T1 sequence (P05093 1-508): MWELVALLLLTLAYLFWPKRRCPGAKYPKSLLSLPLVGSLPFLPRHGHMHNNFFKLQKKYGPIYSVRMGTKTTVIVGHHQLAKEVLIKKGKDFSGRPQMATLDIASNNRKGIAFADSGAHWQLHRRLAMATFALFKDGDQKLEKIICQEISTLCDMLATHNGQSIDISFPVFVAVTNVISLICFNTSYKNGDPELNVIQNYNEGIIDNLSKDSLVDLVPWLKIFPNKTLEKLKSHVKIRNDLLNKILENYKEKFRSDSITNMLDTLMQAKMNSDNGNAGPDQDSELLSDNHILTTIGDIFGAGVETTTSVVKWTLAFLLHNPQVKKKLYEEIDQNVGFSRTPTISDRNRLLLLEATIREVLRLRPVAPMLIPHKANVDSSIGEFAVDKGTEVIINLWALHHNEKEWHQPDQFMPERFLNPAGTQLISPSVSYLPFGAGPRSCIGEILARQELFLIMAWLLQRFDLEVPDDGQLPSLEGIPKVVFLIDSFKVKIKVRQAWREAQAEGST
Method: The selectivity of the compounds of the present invention towards ATRA-4-hydroxylase was tested by measuring the effect on the key enzymes in the biosynthesis of estradiol and dehydroepiandrosterone, CYP19 (aromatase) and CYP17 (17-lyase), respectively.

RAR ? = target: T2, RAR ? (Homo sapiens, UniProt P10826); assay: Competitive [3H]ATRA binding to recombinant RAR (third subtype); settings: for binding to RAR (third subtype): concentrations up to 500 nM
T2 construct: Recombinant full-length RAR proteins were expressed as S-Tag fusion proteins in BL21 E. coli cells; S-Tag; made in house; host or cells: E. coli BL21
T2 sequence (P10826 1-455): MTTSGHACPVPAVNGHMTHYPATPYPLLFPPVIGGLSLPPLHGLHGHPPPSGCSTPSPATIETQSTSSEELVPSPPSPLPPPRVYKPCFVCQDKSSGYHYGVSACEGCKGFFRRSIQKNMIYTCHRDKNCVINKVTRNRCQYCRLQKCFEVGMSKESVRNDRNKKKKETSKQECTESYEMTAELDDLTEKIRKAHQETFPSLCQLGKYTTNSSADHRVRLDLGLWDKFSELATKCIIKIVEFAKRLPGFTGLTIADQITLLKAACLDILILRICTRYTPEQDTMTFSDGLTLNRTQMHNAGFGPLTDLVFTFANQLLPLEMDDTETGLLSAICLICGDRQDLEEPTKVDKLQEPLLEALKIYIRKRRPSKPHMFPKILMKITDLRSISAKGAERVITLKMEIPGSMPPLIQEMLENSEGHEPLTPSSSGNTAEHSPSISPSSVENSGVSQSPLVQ
Description: Because the novel compounds are retinoid-related analogs, they bind to the retinoid receptors in vivo and thus have increased therapeutic potentials. Similar to ATRA, these novel compounds act as a ligand for the retinoic acid receptors (RARs, α, β, and γ) but not the retinoid X receptors (RXRs, α, β, and γ). […] (Nervi C, Grippo J F, Sherman M I, George M D, Jetten A M, Identification and characterization of nuclear retinoic acid-binding activity inhuman myeloblastic leukemia HL-60 cells, Proc Natl Acad Sci USA 86: 5854-5858, 1989) The dissociation constants for the inhibitors is determined by the well described charcoal absorption method (Yang N, Schule R, Mangelsdorf D J, Evans R M, Characterization of DNA binding and retinoic acid binding properties of retinoic acid receptor, Proc Natl Acad Sci USA 88: 3559-3663, 1991). Briefly, serial dilutions of the novel compounds (10^−11 to 10^−5 M) in dimethyl sulfoxide, 100 μL each is used. 12 mg of crude cytosolic extracts is prepared from pET15b (Novagen, Madison, Wis.)/hRAR-α, -β, and -γ prepared protein is used for each data point. All reactions are conducted in binding buffer (60 mM Na imidazole, 500 mM NaCl, 20 mM Tris, pH 7.9) for 14-16 hours at 4° C. in a final volume of 1 mL. Unbound [^3H]ATRA is removed by addition of 0.5 mL of equivalent-sized dextran-treated charcoal (final concentration 3% [wt/vol]) for 15 minutes at 4° C. […]
Since the RAMBAs are retinoic acid analogs, it is possible that some of the compounds may bind to retinoid receptors and function as either transcriptional agonists/antagonists or may display anti AP-1 activity (Chambon P, A decade of molecular biology of retinoic acid, FASEB J 10: 5899-5904, 19962. The ability of three RAMBAs, VN/14-1, VN/50A-1 and VN/66-1 to bind to the individual RAR receptors was thus evaluated in vitro. Recombinant full-length RAR proteins were expressed as S-Tag fusion proteins in BL21 E. coli cells used for competitive binding assays. Each competition-binding assay contained 1 nM [^3H] […]

Row | Structure (SMILES) | inhibition of CYP17 (17-lyase) (CYP17 (17-lyase)) | IC50 (RAR ?; 1 nM [3H]ATRA, competitor 1 nM to 500 nM) [nM] | binding to RAR (third subtype) (RAR ?)
1 | CC1=C(/C=C/C(C)=C/C=C/C(C)=C/C(=O)O)C(C)(C)CCC1n1ccnc1 (racemic) [VN/14-1, (±)-4-(1H-imidazole-1-yl)retinoic acid] | barely inhibited | ~200 | 
2 | CC(C=CC1=C(C)C(n2ccnc2)CCC1(C)C)=CC=CC(C)=CC(=O)Nc1ccc(O)cc1 (racemic) [VN/66-1, (±)-4-(1H-imidazol-1-yl), N-(4′-hydroxyphenyl)retinamide] | barely inhibited |  | did not bind
3 | CC(C=CC1=C(C)C(n2ccnc2)CCC1(C)C)=CC=CC(C)=CC(=O)n1ccnc1 (stereo not drawn) [VN/50A-1] | barely inhibited |  | did not bind
